In patent US10023587B2, “Oxabicycloheptanes and oxabicycloheptenes, their preparation and use” (LIXTE BIOTECHNOLOGY, INC., priority 2007, dated 2018):
“Also recorded” adds a separate entry of the source. Read-outs that look alike come from different tables or passages of the source.

Experiments:
HL-60 cells = test: CellTiter-Glo assay, HL-60; assay type: cell-based; conditions: Homo sapiens; HL-60 Leukemia promyelocytic, 72 hr; read-out: IC50 (50% Inhibition of Proliferation)
Experimental: (§1) MDA-MB-231, HT-29, NCI-H460, NCI-H522, NCI-H69, GXF-209, HepG2, OVAR-3, PANC-1, DU-145, LNCAP, HL-60, K-562, and MOLT-4 cell lines were either obtained from the American Type Culture Collection (ATCC; Manassas, Va.), or from the National Cancer Institute (NCI; Frederick, Md.). RPMI-1640 media, L-glutamine dipeptide (HyQ SG-200), and HEPES were obtained from Hyclone (Logan, Utah).
(§2) All cell lines were routinely cultured twice weekly in RPMI-1640 medium supplemented with 2 mM L-glutamine dipeptide, 10 mM HEPES, and 10% FBS.
(§3) The adherent cell lines MDA-MB-231, HT-29, NCI-H460, NCI-H522, GXF-209, HepG2, OVAR-3, PANC-1, DU-145, and LNCAP cells were each seeded into two 96-well plates at 2,500 cells per well in a total volume of 50 uL and incubated in a 37° C. humidified 5% CO2 cell culture incubator overnight. The suspension cell lines NCI-H69, HL-60, K-562, and MOLT-4 were each seeded into two 96-well plates at 10,000 cell per well in a total volume of 50 uL and incubated in a 37° C. humidified 5% CO2 incubator overnight.
(§4) This was followed by making 2× stocks of the final concentrations required in RPMI-1640 medium. […]
(§5) Briefly, plates were removed from the incubator and placed on the bench at room temperatures for 30 minutes. […] Luminescence was then recorded using the PerkinElmer Microbeta scintillation and luminescence counter (Trilux).

C. albicans = test: Antifungal susceptibility testing (broth dilution), C. albicans; assay type: cell-based, Candida albicans; conditions: for MIC: Candida albicans, read-out: minimum inhibitory concentration (MIC)
Experimental: (§6) Anti-fungal testing was completed with a common lot for compounds 100 and 102.
(§7) A 10 mg portion of each powder was weighed out and added to 1 ml of sterile distilled water for compound 100 and DMSO for compound 102. The resulting concentration of […] was diluted to a working concentration of 640 μg/ml for each compound. All subsequent dilutions were also made using the respective diluents. Final testing concentrations ranged from 0.125-64 μg/ml.
(§8) A total of 23 isolates were tested to include 3 Candida albicans, 3 Candida glabrata, 3 Cryptococcus neoformans, 3 Aspergillus fumigatus, 3 Rhizopus oryzae, 3, Fusarium solani, 3 Pseudallescheria boydii, and 2 […] rubrum. All isolates were clinical isolates submitted to the Fungus Testing Laboratory for evaluation. Antifungal susceptibility testing was accomplished according to the methods outlined in the National Committee for Clinical Laboratory Standards, M-27A2, Reference Method for Broth Dilution Antifungal Susceptibility Testing of Yeasts; Approved Standard, and M38-A “Reference Method for Broth Dilution Antifungal Susceptibility Testing of Conidium-Forming Filamentous Fungi; Approved Standard”. This includes testing in RPMI-1640 with glutamine and without bicarbonate, an inoculum size of 0.5-2.5×10^3 for yeasts or 1-5×10^4 for moulds, and incubation at 35° C. for 24 and 48 hours.

K-562 cells = test: CellTiter-Glo assay, K-562; assay type: cell-based; conditions: Homo sapiens, K562; K-562 Leukemia chronic myelo, 72 hr; read-out: IC50 (50% Inhibition of Proliferation)
Experimental: as §1, §2, §3, §4, §5

OVCAR-3 cells = test: CellTiter-Glo assay, OVCAR-3; assay type: cell-based; conditions: Homo sapiens; OVCAR-3 Ovary adenoca, 72 hr; read-out: IC50 (50% Inhibition of Proliferation)
Experimental: as §1, §2, §3, §4, §5

GXF-209 cells = test: CellTiter-Glo assay, GXF-209; assay type: cell-based; conditions: Homo sapiens; GXF-209 Stomach, 72 hr; read-out: IC50 (50% Inhibition of Proliferation)
Experimental: as §1, §2, §3, §4, §5

CP Control = test: Antifungal susceptibility testing (broth dilution), CP Control; assay type: cell-based; conditions: read-out: minimum inhibitory concentration (MIC)
Experimental: as §6, §7, §8

[1] = Solubility (water, lipid); assay type: physicochemical
GBM cell line U373 = test: Inhibition of growth of GBM cell line U373 by single agents (cell counts); assay type: cell-based, human; conditions: for Inhibition of growth of cell line U373 (in words): single agent, 7 days
Description: From graphic plots of the glioblastoma multiforme GBM cell line U373 (available from the National Institute of Neurological Disorders and Stroke Molecular Pathogenesis Unit, Building 10, Room 5 D37, National Institutes of Health, 900 Rockville Pike, Bethesda, Md., 20892) as a function of exposure to different doses of drug for 7 days, the concentration of each compound that inhibited brain tumor cell proliferation by 50% (IC50) was estimated.
To identify novel therapeutic targets for the treatment of glioblastoma multiforme (GBM), cantharidin analogues were evaluated for their ability to inhibit growth of glioblastoma multiforme cells. Specifically, GBM cell line U373 was used in evaluations.
The total number of cells is counted in the triplicate cultures at each dose and in controls after 7 days and the average number of cells and the standard deviation is determined.
The amount of inhibition of GBM cell growth is expressed as the proportion of the number of cells in the experimental dishes compared to the number of cells in control dishes containing only the drug vehicle and culture medium. The average percent of control is plotted and bracketed by one standard deviation calculated from the triplicate measurements.
For all cell culture experiments, cells are allowed to grow in the presence or absence of different concentrations of drug or in the presence of the vehicle used to dissolve the drug, PBS for compound 100 and DMSO for compound 102. Cell counts are done in triplicate on day 3 and day 7 and inhibition of growth is expressed as a percentage of the number of cells present in the experimental well divided by the number of cells in a control well.

P. boydii = test: Antifungal susceptibility testing (broth dilution), P. boydii; assay type: cell-based, Pseudallescheria boydii; conditions: for MIC: Scedosporium boydii, read-out: minimum inhibitory concentration (MIC)
Experimental: as §6, §7, §8

| SMILES | IC50 (HL-60 cells) | minimum inhibitory concentration (MIC) (C. albicans; isolate 07-3006, 24 Hours) | minimum inhibitory concentration (MIC) (C. albicans; isolate 07-3006, 48 Hours) | minimum inhibitory concentration (MIC) (C. albicans; isolate 07-3011, 24 Hours) | minimum inhibitory concentration (MIC) (C. albicans; isolate 07-3011, 48 Hours) | IC50 (K-562 cells) | IC50 (OVCAR-3 cells) | IC50 (GXF-209 cells) | MIC (CP Control; 24 Hours) | MIC (CP Control; 48 Hours) | Inhibition of growth of cell line U373 (in words) (GBM cell line U373) | minimum inhibitory concentration (MIC) (P. boydii; isolate 07-1502, 24 Hours) | minimum inhibitory concentration (MIC) (P. boydii; isolate 07-1502, 48 Hours) | minimum inhibitory concentration (MIC) (P. boydii; isolate 07-1601, 24 Hours) | minimum inhibitory concentration (MIC) (P. boydii; isolate 07-1601, 48 Hours) | also measured |
| --- | --- | --- | --- | --- | --- | --- | --- | --- | --- | --- | --- | --- | --- | --- | --- | --- |
| CC(C)(C)OC(=O)N1CCN(C(=O)C2C(C(=O)O)[C@H]3CC[C@@H]2O3)CC1 (stereo in doubt) [Compound 102, 4-(3-Carboxy-7oxa-bicyclo[2.2.1]heptane-2-carbonyl)piperazine-1-carboxylic acid tert-butyl ester] | 6.5 µM | >64 mg/L | >64 mg/L | >64 mg/L | >64 mg/L | 13.7 µM | 5.1 µM | 5.3 µM | > 64 mg/L | > 64 mg/L | highly potent | >64 mg/L | >64 mg/L | >64 mg/L | >64 mg/L | MIC (C. albicans; isolate 07-3012, 24 Hours): > 64 mg/L; MIC (C. albicans; isolate 07-3012, 48 Hours): > 64 mg/L; Lipid solubility (in words) [1]: lipid soluble; MIC (P. boydii; isolate 07-1333, 24 Hours): > 64 mg/L; MIC (P. boydii; isolate 07-1333, 48 Hours): > 64 mg/L |
| CN1CCN(C(=O)C2C(C(=O)O)[C@H]3CC[C@@H]2O3)CC1 (stereo partly shown) [Compound 100, Endothall 4-Methylpiperazine Monoamide] | 7.7 µM | >64 mg/L | >64 mg/L | >64 mg/L | >64 mg/L | 10.7 µM | 2.9 µM | 7.9 µM | > 64 mg/L | > 64 mg/L | potent inhibitor of GBMs in vitro; also recorded: Increasing dosages demonstrate a greater inhibition of growth; also recorded: modest inhibition of growth | >64 mg/L | >64 mg/L | >64 mg/L | >64 mg/L | MIC (C. albicans; 24 h): > 64 mg/L; MIC (C. albicans; 48 h): > 64 mg/L; Water solubility (in words) ([1]; own compounds): water soluble; Inhibitory value against U373, comparison of the two compounds (GBM cell line U373; 10 μM, seven days (FIG. 8)): identical inhibitory values; IC50 (GBM cell line U373; Homo sapiens, U373 MG, 168 h, U373, exposure for 7 days, estimated from graphic plots (FIG. 1), read-out: concentration that inhibited brain tumor cell proliferation by 50% (IC50)): 3 µM; Inhibition of growth of cell line U373 (in words) (GBM cell line U373; listed as compound 100): inhibitory activities at low micromolar concentrations; also recorded: dose dependent inhibition; MIC (P. boydii; 24 h): > 64 mg/L; MIC (P. boydii; 48 h): > 64 mg/L |
